Measured values as given in patent US20250215030A1, “STAT MODULATORS AND USES THEREOF” (Recludix Pharma, Inc., priority 2022, published 2025).
pIC50: −log10 of the molar value.

Columns and labels:
pSTAT3 (pY705-STAT3) = target: T1, pSTAT3 (pY705-STAT3) (Homo sapiens, UniProt P40763); assay: MSD-pSTAT-PBMC Assay (pSTAT3, IL-6 stimulated); type: cell-based; conditions: PBMC, compound 3 hrs, then 10 ng/mL IL-6 for 10 min; MSD pY705-STAT3; read-out: pSTAT3
T1 construct: host or cells: cryopreserved PBMC
Outline: (§1)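 Phospho-STAT levels captured on anti-STAT3 or anti-STAT6 plates and detected with anti-pY705 or anti-pY641 antibodies (MSD read-out). Cryopreserved human PBMCs received compound for 3 h before a 10 min pulse of IL-6 (10 ng/mL, STAT3) or IL-4 (1 ng/mL, STAT6). IC50 fitted after unstimulated-background subtraction and DMSO normalization.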

pSTAT6 (pY641-STAT6) = target: T2, pSTAT6 (pY641-STAT6) (Homo sapiens, UniProt P42226); assay: MSD-pSTAT-PBMC Assay (pSTAT6, IL-4 stimulated); type: cell-based; conditions: compound 3 hrs, then 1 ng/mL IL-4 for 10 min
T2 construct: host or cells: cryopreserved PBMC
T2 sequence (P42226 1-847): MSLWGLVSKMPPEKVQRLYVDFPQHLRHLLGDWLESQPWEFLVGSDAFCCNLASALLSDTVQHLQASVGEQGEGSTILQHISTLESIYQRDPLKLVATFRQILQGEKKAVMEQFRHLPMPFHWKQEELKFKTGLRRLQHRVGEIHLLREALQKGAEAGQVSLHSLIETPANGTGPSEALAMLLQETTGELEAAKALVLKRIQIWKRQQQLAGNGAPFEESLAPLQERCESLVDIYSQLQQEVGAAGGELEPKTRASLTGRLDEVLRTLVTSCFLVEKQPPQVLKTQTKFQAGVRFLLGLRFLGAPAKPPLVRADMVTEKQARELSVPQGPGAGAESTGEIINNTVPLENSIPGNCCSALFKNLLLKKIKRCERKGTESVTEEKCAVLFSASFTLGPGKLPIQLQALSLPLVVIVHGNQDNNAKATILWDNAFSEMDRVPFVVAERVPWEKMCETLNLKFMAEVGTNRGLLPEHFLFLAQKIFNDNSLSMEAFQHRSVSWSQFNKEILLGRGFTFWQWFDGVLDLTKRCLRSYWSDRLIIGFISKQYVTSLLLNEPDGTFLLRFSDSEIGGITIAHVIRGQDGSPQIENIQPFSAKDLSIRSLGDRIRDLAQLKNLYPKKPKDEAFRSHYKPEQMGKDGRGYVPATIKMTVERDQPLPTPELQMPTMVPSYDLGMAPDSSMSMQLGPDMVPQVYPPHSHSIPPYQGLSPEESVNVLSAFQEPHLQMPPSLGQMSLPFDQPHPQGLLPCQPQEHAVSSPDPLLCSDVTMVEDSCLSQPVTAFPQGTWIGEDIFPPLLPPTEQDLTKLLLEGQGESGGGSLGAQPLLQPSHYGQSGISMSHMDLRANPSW
Outline: as §1

T1 sequence (P40763 whole entry): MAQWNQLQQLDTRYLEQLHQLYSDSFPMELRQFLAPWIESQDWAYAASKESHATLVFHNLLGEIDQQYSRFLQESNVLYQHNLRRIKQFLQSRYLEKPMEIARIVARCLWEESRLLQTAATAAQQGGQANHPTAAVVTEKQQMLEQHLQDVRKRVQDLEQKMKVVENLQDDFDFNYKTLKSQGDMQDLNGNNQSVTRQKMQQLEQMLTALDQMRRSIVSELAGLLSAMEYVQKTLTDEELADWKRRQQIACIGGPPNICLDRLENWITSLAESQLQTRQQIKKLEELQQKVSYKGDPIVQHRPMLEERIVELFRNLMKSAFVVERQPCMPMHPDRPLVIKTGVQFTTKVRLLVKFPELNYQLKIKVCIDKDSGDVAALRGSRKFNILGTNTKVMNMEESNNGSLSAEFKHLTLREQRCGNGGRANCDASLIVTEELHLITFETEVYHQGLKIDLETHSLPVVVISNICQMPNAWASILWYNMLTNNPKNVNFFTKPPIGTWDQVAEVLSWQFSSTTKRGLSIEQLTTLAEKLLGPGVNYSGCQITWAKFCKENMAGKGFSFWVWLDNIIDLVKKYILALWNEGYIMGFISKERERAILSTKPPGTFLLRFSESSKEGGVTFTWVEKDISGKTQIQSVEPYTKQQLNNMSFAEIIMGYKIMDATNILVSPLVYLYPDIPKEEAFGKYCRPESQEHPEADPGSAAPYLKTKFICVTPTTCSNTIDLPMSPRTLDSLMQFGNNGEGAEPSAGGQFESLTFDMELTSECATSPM

Compound	pIC50 (pSTAT3 (pY705-STAT3))	pIC50 (pSTAT6 (pY641-STAT6))
CC(C)OC(=O)[C@@H](C)CNP(=O)(Oc1ccccc1)C(F)(F)c1ccc2sc(C(=O)N[C@H]3C[C@@H]4C[C@@H]4C[C@H]4CC[C@@H](C(=O)N5CC(C(=O)N6CCOCC6)C5)N4C3=O)cc2c1 (stereo partly drawn) [Compound 184, isopropyl (2S)-3-(((difluoro(2-(((3S,6S,7aS, 8aR,9aR)-3-(3-(morpholine-4-carbonyl)azetidine-1-carbonyl)-5-oxodecahydro-1H-cyclopropa [d]pyrrolo[1,2-a]azocin-6-yl)carbamoyl)benzo[b]thiophen-5-yl)methyl) (phenoxy)phosphoryl)amino)-2-methyl-propanoate]	< 5.52	< 5.52
CC(C)CC(=O)SCCOP(=O)(Oc1ccccc1)C(F)(F)c1ccc2sc(C(=O)N[C@H]3C[C@@H]4C[C@@H]4C[C@H]4CC[C@@H](C(=O)N5CC(C(=O)N6CCOCC6)C5)N4C3=O)cc2c1 (stereo partly drawn) [Compound 185, S-(2-(((difluoro(2-(((3S,6S,7aS, 8aR,9aR)-3-(3-(morpholine-4-carbonyl)azetidine-1-carbonyl)-5-oxodecahydro-1H-cyclopropa[d]pyrrolo[1,2-a]azocin-6-yl)carbamoyl)benzo[b]thiophen-5-yl)methyl) (phenoxy)phosphoryl)oxy)ethyl) 3-methylbutane thioate]	6.00 to 7.00	< 5.52
CC(C)OC(=O)[C@H](C)NP(=O)(Oc1ccccc1)C(F)(F)c1ccc2sc(C(=O)N[C@H]3C[C@@H]4C[C@@H]4C[C@H]4CC[C@@H](C(=O)N5CC(C(=O)N6CCOCC6)C5)N4C3=O)cc2c1 (stereo partly drawn) [Compound 186, isopropyl ((difluoro(2-(((3S,6S,7aS, 8aR,9aR)-3-(3-(morpholine-4-carbonyl)azetidine-1-carbonyl)-5-oxodecahydro-1H-cyclopropa[d]pyrrolo[1,2-a]azocin-6-yl)carbamoyl)benzo[b]thiophen-5-yl)methyl) (phenoxy)phosphoryl)-L-alaninate]	< 5.52	< 5.52
CC(C)(C)C(=O)OCOP(=O)(OCOC(=O)C(C)(C)C)C(F)(F)c1ccc2sc(C(=O)N[C@H]3C[C@H]4C[C@H]4C[C@H]4CC[C@@H](C(=O)N5CC(c6cccnc6)C5)N4C3=O)cc2c1 [Compound 187, (((difluoro(2-(((3S,6S,7aR, 8aS,9aR)-5-oxo-3-(3-(pyridin-3-yl)azetidine-1-carbonyl)decahydro-1H-cyclopropa[d]pyrrolo[1,2-a]azocin-6-yl)carbamoyl)benzo[b]thiophen-5-yl)methyl)phosphoryl)bis(oxy)) bis(methylene) bis(2,2-dimethyl-propanoate)]	> 7.00	6.00 to 7.00
CCCC(=O)SCCOP(=O)(OCCSC(=O)CCC)C(F)(F)c1ccc2sc(C(=O)N[C@H]3C[C@@H]4C[C@@H]4C[C@H]4CC[C@@H](C(=O)N5CC(n6ccnc6)C5)N4C3=O)cc2c1 [Compound 188, S,S′-(((((2-(((3S,6S,7aS, 8aR,9aR)-3-(3-(1H-imidazol-1-yl)azetidine-1-carbonyl)-5-oxodecahydro-1H-cyclopropa[d]pyrrolo[1,2-a]azocin-6-yl)carbamoyl)benzo[b]thiophen-5-yl)difluoromethyl)phosphoryl)bis(oxy))bis(ethane-2,1-diyl)) dibutanethioate]	> 7.00	6.00 to 7.00
CC(C)OC(=O)OCOP(=O)(OCOC(=O)OC(C)C)C(F)(F)c1ccc2sc(C(=O)N[C@H]3C[C@H]4C[C@H]4C[C@H]4CC[C@@H](C(=O)N5CC(c6cccnc6)C5)N4C3=O)cc2c1 [Compound 189, (((difluoro(2-(((3S,6S,7aR, 8aS,9aR)-5-oxo-3-(3-(pyridin-3-yl)azetidine-1-carbonyl)decahydro-1H-cyclopropa[d]pyrrolo[1,2-a]azocin-6-yl)carbamoyl)benzo[b]thiophen-5-yl)methyl)phosphoryl)bis(oxy)) bis(methylene) diisopropyl bis(carbonate)]	> 7.00	5.52 to 6.00
CC(C)CC(=O)SCCOP(=O)(Oc1ccccc1)C(F)(F)c1ccc2sc(C(=O)N[C@H]3C[C@H]4C[C@H]4C[C@H]4CC[C@@H](C(=O)N5CC(c6cccnc6)C5)N4C3=O)cc2c1 (stereo partly drawn) [Compound 193, S-(2-(((difluoro(2-(((3S,6S,7aR, 8aS,9aR)-5-oxo-3-(3-(pyridin-3-yl)azetidine-1-carbonyl)decahydro-1H-cyclopropa[d]pyrrolo[1,2-a]azocin-6-yl)carbamoyl)benzo[b]thiophen-5-yl)methyl) (phenoxy)phosphoryl)oxy)ethyl) 3-methylbutane thioate]	> 7.00	< 5.52
CC(C)(C)C(=O)SCCOP(=O)(Oc1ccccc1)C(F)(F)c1ccc2sc(C(=O)N[C@H]3C[C@H]4C[C@H]4C[C@H]4CC[C@@H](C(=O)N5CC(n6ccnc6)C5)N4C3=O)cc2c1 (stereo partly drawn) [Compound 195, S-(2-((((2-(((3S,6S,7aR, 8aS,9aR)-3-(3-(1H-imidazol-1-yl)azetidine-1-carbonyl)-5-oxodecahydro-1H-cyclopropa[d]pyrrolo[1,2-a]azocin-6-yl)carbamoyl)benzo[b]thiophen-5-yl)difluoromethyl) (phenoxy)phosphoryl)oxy)ethyl) 2,2-dimethyl-propanethioate]	6.00 to 7.00	< 5.52
CC(C)CC(=O)SCCOP(=O)(Oc1ccccc1)C(F)(F)c1ccc2sc(C(=O)N[C@H]3C[C@H]4C[C@H]4C[C@H]4CC[C@@H](C(=O)N5CC(n6ccnc6)C5)N4C3=O)cc2c1 (stereo partly drawn) [Compound 196, S-(2-((((2-(((3S,6S,7aR, 8aS,9aR)-3-(3-(1H-imidazol-1-yl)azetidine-1-carbonyl)-5-oxodecahydro-1H-cyclopropa[d]pyrrolo[1,2-a]azocin-6-yl)carbamoyl)benzo[b]thiophen-5-yl)difluoromethyl) (phenoxy)phosphoryl)oxy)ethyl) 3-methylbutane thioate]	> 7.00	< 5.52
CCCC(=O)SCCOP(=O)(Oc1ccccc1)C(F)(F)c1ccc2sc(C(=O)N[C@H]3C[C@@H]4C[C@@H]4C[C@H]4CC[C@@H](C(=O)N5CC(n6ccnc6)C5)N4C3=O)cc2c1 (stereo partly drawn) [Compound 198, S-(2-((((2-(((3S,6S,7aS, 8aR,9aR)-3-(3-(1H-imidazol-1-yl)azetidine-1-carbonyl)-5-oxodecahydro-1H-cyclopropa[d]pyrrolo[1,2-a]azocin-6-yl)carbamoyl)benzo[b]thiophen-5-yl)difluoromethyl) (phenoxy)phosphoryl)oxy)ethyl) butanethioate]	> 7.00	5.52 to 6.00
COC1(c2nccn2C)CN(C(=O)[C@@H]2CC[C@@H]3C[C@@H]4C[C@@H]4C[C@H](NC(=O)c4cc5cc(C(F)(F)P(=O)(OCCSC(=O)C(C)(C)C)OCCSC(=O)C(C)(C)C)ccc5s4)C(=O)N32)C1 [Compound 202, S,S′-((((difluoro(2-(((3S,6S,7aR, 8aS,9aR)-3-(3-methoxy-3-(1-methyl-1H-imidazol-2-yl)azetidine-1-carbonyl)-5-oxodecahydro-1H-cyclopropa[d]pyrrolo[1,2-a]azocin-6-yl)carbamoyl)benzo[b]thiophen-5-yl)methyl)phosphoryl)bis(oxy))bis(ethane-2,1-diyl)) bis(2,2-dimethyl-propanethioate)]	> 7.00	< 5.52
